Data taken from ChEMBL document CHEMBL1150977, “A quantitative analysis of kinase inhibitor selectivity” (Nat Biotechnol, 2008).

Experiments:
[1] = target: Mitogen-activated protein kinase kinase kinase 20 (Homo sapiens, UniProt Q9NYL2)
[2] = target: 5'-AMP-activated protein kinase catalytic subunit alpha-2 (Homo sapiens, UniProt P54646)
Aurora kinase C = target: T1, Aurora kinase C (Homo sapiens, UniProt Q9UQB9)
T1 sequence (Q9UQB9 whole entry): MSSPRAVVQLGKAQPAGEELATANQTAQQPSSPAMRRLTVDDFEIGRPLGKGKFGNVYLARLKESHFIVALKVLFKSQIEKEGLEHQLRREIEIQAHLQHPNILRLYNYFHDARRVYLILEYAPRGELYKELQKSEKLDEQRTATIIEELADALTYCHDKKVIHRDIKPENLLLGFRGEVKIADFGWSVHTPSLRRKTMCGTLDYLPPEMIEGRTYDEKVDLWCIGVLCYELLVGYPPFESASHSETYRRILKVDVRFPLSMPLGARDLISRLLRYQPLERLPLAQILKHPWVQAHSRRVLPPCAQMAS

[3] = target: T2, Serine/threonine-protein kinase D2 (Homo sapiens, UniProt Q9BZL6)
T2 sequence (Q9BZL6 whole entry): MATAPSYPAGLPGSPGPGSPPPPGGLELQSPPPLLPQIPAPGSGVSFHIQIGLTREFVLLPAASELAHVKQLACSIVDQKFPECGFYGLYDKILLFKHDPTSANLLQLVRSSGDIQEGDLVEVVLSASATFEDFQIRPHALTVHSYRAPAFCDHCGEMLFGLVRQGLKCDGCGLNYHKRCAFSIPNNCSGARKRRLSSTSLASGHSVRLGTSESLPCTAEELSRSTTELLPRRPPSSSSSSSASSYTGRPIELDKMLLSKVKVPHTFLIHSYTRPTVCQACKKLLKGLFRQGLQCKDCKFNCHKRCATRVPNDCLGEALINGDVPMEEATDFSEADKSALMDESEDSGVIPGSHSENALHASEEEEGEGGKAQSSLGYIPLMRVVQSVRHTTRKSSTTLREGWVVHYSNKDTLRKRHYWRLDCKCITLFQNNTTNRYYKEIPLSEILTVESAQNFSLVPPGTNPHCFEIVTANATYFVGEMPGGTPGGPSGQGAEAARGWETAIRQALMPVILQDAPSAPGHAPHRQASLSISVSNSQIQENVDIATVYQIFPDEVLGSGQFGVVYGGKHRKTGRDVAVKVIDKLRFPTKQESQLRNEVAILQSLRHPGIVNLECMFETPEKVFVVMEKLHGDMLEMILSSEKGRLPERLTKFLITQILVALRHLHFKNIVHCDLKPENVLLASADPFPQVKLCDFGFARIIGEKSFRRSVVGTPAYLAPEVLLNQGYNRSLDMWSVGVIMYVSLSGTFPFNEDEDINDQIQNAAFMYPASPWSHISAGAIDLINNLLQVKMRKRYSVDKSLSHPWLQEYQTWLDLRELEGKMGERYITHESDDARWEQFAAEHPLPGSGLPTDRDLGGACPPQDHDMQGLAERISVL

Ephrin type-B receptor 4 = target: T3, Ephrin type-B receptor 4 (Homo sapiens, UniProt P54760)
T3 sequence (P54760 whole entry): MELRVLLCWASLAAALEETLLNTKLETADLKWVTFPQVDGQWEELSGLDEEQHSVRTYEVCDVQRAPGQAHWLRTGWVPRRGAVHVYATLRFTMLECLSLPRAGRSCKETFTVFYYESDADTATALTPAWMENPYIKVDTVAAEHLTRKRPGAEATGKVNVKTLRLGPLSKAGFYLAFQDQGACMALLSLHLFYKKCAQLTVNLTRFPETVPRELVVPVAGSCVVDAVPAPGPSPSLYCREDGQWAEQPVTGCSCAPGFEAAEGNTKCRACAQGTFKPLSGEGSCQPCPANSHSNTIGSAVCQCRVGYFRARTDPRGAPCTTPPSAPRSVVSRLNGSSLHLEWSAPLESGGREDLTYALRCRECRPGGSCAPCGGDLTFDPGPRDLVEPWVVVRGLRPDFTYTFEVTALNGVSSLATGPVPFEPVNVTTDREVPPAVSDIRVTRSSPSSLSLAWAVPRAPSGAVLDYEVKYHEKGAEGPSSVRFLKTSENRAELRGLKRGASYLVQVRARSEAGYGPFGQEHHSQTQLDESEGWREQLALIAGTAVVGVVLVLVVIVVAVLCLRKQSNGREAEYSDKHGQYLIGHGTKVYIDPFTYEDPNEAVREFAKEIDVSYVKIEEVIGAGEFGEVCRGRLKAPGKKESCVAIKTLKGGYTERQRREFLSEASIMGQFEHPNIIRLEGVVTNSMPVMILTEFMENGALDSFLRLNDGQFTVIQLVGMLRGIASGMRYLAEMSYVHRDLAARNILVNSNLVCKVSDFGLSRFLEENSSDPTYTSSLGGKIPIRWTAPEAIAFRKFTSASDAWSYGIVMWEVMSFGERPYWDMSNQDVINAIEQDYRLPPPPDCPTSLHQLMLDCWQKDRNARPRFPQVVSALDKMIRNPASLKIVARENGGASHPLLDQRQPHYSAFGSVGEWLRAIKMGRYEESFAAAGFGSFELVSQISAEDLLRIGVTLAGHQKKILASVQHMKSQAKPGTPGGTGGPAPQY

[4] = target: Ribosomal protein S6 kinase alpha-4 (Homo sapiens, UniProt O75676)
[5] = target: Platelet-derived growth factor receptor alpha (Homo sapiens, UniProt P16234)
[6] = target: Receptor tyrosine-protein kinase erbB-2 (Homo sapiens, UniProt P04626)
[7] = target: Tyrosine-protein kinase Fyn (Homo sapiens, UniProt P06241)
[8] = target: Serine/threonine-protein kinase MARK1 (Homo sapiens, UniProt Q9P0L2)
[9] = target: Tyrosine-protein kinase ABL1 (Homo sapiens, UniProt P00519, E255K)
[10] = target: Tyrosine-protein kinase ABL2 (Homo sapiens, UniProt P42684)

Row | SMILES | Kd [1] | Kd [2] | Kd (Aurora kinase C) | Kd [3] | Kd (Ephrin type-B receptor 4) | Kd [4] | Kd [5] | Kd [6] | Kd [7] | Kd [8] | Kd [9] | Kd [10]
1 | CCOc1cc2ncc(C#N)c(Nc3ccc(F)c(Cl)c3)c2cc1NC(=O)/C=C/CN(C)C [PELITINIB] | 1.2 µM | > 10 µM | > 10 µM | > 10 µM | 2.8 µM | > 10 µM | > 10 µM | 0.5 µM |  |  |  | 
2 | COCC(=O)NC/C=C/c1ccc2ncnc(Nc3ccc(Oc4ccc(C)nc4)c(C)c3)c2c1 [CP-724714] | > 10 µM | > 10 µM | > 10 µM | > 10 µM | > 10 µM | > 10 µM | > 10 µM |  | > 10 µM | > 10 µM | > 10 µM | > 10 µM
3 | NC(=O)c1ccc(-c2nc(-c3ccc4c(c3)OCO4)c(-c3ccccn3)[nH]2)cc1 [SB-431542] | > 10 µM | > 10 µM | > 10 µM | > 10 µM | > 10 µM | > 10 µM | > 10 µM | > 10 µM | > 10 µM | > 10 µM | > 10 µM | > 10 µM
4 | Nc1nc(Nc2ccc(S(N)(=O)=O)cc2)nn1C(=O)c1c(F)cccc1F [JNJ-7706621] | > 10 µM |  | 0.086 µM | > 10 µM | > 10 µM | 3 µM |  | > 10 µM |  |  |  | > 10 µM
5 | Oc1ccc(-c2nc(-c3ccncc3)c(-c3ccc(F)cc3)[nH]2)cc1 [SB-202190] | > 10 µM | > 10 µM | > 10 µM | > 10 µM | > 10 µM | > 10 µM | > 10 µM | > 10 µM | > 10 µM | > 10 µM | > 10 µM | > 10 µM
